16 molecules from PubChem BioAssay (NCI) can be followed below.

Among the test systems are SK-OV-3 ovarian; HT29 colon; OVCAR-3 ovarian; SNB-19 CNS; 786-0 renal; OVCAR-5 ovarian; UACC-62 melanoma.
Experiment in all cases: growth of human tumour cells (NCI), 48 h

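In this assay, cells in 96-well plates receive the compound at five concentrations for 48 hours. Endpoints are linearly interpolated between the surrounding concentrations. At the GI50, growth is halved. TGI denotes the concentration required for complete inhibition of growth.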 Some results are limits rather than exact numbers.

Consider `Cc1ccc(S(=O)(=O)N[C@H](C(=O)O)c2ccccc2)cc1`, for which the TGI with SK-OV-3 ovarian, in the assay on HT29 colon, in the assay with OVCAR-3 ovarian, with SNB-19 CNS, in the assay on 786-0 renal and with OVCAR-5 ovarian was over 100 µM each time. The molecule also came in with a TGI in the assay on UACC-62 melanoma of over 100 µM.

On to `NC1=NC(=O)/C(=C/c2ccccc2[N+](=O)[O-])C(N)=N1`, for which the TGI in the assay with SK-OV-3 ovarian, in the assay on HT29 colon, with OVCAR-3 ovarian, with SNB-19 CNS, with 786-0 renal and in the assay with OVCAR-5 ovarian was over 100 µM in each case. The same molecule gave a TGI in the assay on UACC-62 melanoma of over 100 µM.

On to `CCOc1ccccc1NC(=O)CC1C(=O)Nc2ccccc2S1=O` (stereo not drawn), for which the TGI in the assay with HT29 colon, in the assay on OVCAR-3 ovarian, with SNB-19 CNS, in the assay on 786-0 renal, with OVCAR-5 ovarian and in the assay on UACC-62 melanoma was over 100 µM each time.

Regarding `C[N+](C)(C)CC1CCCC/C1=N\OC(=O)c1ccccc1` (stereo not drawn), the TGI in the assay with SK-OV-3 ovarian, with HT29 colon, with OVCAR-3 ovarian, in the assay with SNB-19 CNS, in the assay on 786-0 renal and in the assay on OVCAR-5 ovarian was over 100 µM throughout. The molecule also displayed a TGI in the assay with UACC-62 melanoma of over 100 µM.

For the molecule `COc1cc(/C=C/c2ccncc2)cc(OC)c1OC`, the TGI with HT29 colon was over 100 µM; in the assay on OVCAR-3 ovarian, over 100 µM; in the assay with SNB-19 CNS it was over 100 µM; with 786-0 renal, over 100 µM; with OVCAR-5 ovarian, 97.9 µM; in the assay on UACC-62 melanoma, over 100 µM.

In the case of `CN1C(=O)CC(c2cccc(C3CC(=O)N(C)C3=O)n2)C1=O` (stereo not drawn), the TGI with SK-OV-3 ovarian, with HT29 colon, with OVCAR-3 ovarian, in the assay with SNB-19 CNS, in the assay on 786-0 renal and with OVCAR-5 ovarian was over 100 µM in each case. Also, the TGI in the assay with UACC-62 melanoma is over 100 µM.

Consider `Cc1ccccc1NC(=O)C(=O)C(C#N)c1ccc(Cl)cc1` (stereo not drawn), for which the TGI in the assay with SK-OV-3 ovarian, in the assay on HT29 colon, in the assay on OVCAR-3 ovarian, with SNB-19 CNS, with 786-0 renal and with OVCAR-5 ovarian was over 100 µM in each case. Besides, in the assay on UACC-62 melanoma, the TGI was over 100 µM.

Turning to `CC1CC(C2=CC=CCS2)=Nc2ccccc2S1` (stereo not drawn), the TGI with SK-OV-3 ovarian, in the assay with OVCAR-3 ovarian, with SNB-19 CNS, in the assay on 786-0 renal, with OVCAR-5 ovarian and with UACC-62 melanoma was over 100 µM each time.

For the molecule `COc1ccccc1/C=C(\C#N)c1ccccc1`, the TGI with SK-OV-3 ovarian is 84.3 µM; in the assay on HT29 colon it was over 100 µM; in the assay with OVCAR-3 ovarian it was 51.2 µM; in the assay on 786-0 renal, 42.5 µM; in the assay on OVCAR-5 ovarian, over 100 µM; in the assay with UACC-62 melanoma it was over 100 µM.

Turning to `COc1ccc(C2CC(=O)c3c(O)cc(O)cc3O2)cc1O` (stereo not drawn), the TGI in the assay with SK-OV-3 ovarian, in the assay with HT29 colon, with OVCAR-3 ovarian, in the assay on SNB-19 CNS, in the assay on 786-0 renal and in the assay on OVCAR-5 ovarian was over 100 µM in each case. The same molecule came in with a TGI in the assay on UACC-62 melanoma of over 100 µM.

`O=C1[C@@H]2C(c3ccccc3Br)=NO[C@@H]2C(=O)N1c1ccc(Cc2ccc(N3C(=O)[C@H]4C(c5ccccc5Br)=NO[C@H]4C3=O)cc2)cc1`: the TGI with SK-OV-3 ovarian, with HT29 colon, in the assay with OVCAR-3 ovarian, in the assay on 786-0 renal, in the assay with OVCAR-5 ovarian and with UACC-62 melanoma was over 100 µM in each case.

For the molecule `CN1N=CSC12C(=O)N(c1ccc(Cl)cc1)C(=O)N2c1ccc(Cl)cc1` (stereo not drawn), the TGI in the assay on SK-OV-3 ovarian was 32 µM; with HT29 colon it was 32 µM; with OVCAR-3 ovarian, 4.54 µM; with SNB-19 CNS, 69.5 µM; with 786-0 renal, over 100 µM; with UACC-62 melanoma, 29.1 µM.

On to `COc1cc(C2c3[nH]c4ccccc4c3C[C@H]3COC(=O)N23)cc(OC)c1OC` (stereo partly drawn), for which the GI50 with HT29 colon, in the assay with OVCAR-3 ovarian, in the assay with 786-0 renal and with UACC-62 melanoma was under 0.01 µM in each case. Moreover, the TGI with HT29 colon was over 100 µM; in the assay with SNB-19 CNS, 3.16 µM; in the assay on 786-0 renal, over 100 µM; in the assay with UACC-62 melanoma, over 100 µM.

In the case of `COC(=O)C1=C(c2ccc(OC)c(OC)c2)OC(c2ccc(OC)c(OC)c2)C1` (stereo not drawn), the TGI is 96.7 µM in the assay with SK-OV-3 ovarian; over 100 µM with HT29 colon; over 100 µM in the assay on OVCAR-3 ovarian; over 100 µM with 786-0 renal; over 100 µM in the assay on OVCAR-5 ovarian; over 100 µM in the assay with UACC-62 melanoma.

Take `CN(C)c1ccc2c(=O)c3ccccc3oc2n1`: the TGI in the assay with SK-OV-3 ovarian, in the assay with OVCAR-3 ovarian, in the assay on SNB-19 CNS, with 786-0 renal, with OVCAR-5 ovarian and in the assay with UACC-62 melanoma was over 100 µM throughout.

With `Cc1ccc(NC(=O)c2cc3cc(N=Nc4ccc(Br)cc4)ccc3oc2=O)cc1`, the TGI with SK-OV-3 ovarian, in the assay on HT29 colon, with SNB-19 CNS, in the assay with 786-0 renal and with OVCAR-5 ovarian was over 100 µM each time.
